Bounds are passed on as bounds.

As to `Oc1ccc(-c2ncc3ncc(-c4ccoc4)cc3n2)cc1` [Compound 36, 2-(4-Hydroxyphenyl)-7-(3-furyl)-pyrido[3,2-d]pyrimidine], the melting point is more than 268 °C.
On to `O=Cc1ccc(-c2cnc3cnc(-c4ccc(O)cc4)nc3c2)cc1` [Compound 42, 2-(4-Hydroxyphenyl)-7-(4-formylphenyl)-pyrido[3,2-d]pyrimidine], for which the melting point was more than 268 °C.
Consider `COCOc1ccc(-c2ncc3ncc(NC(=O)c4cccnc4)cc3n2)cc1` [Compound 65, N-[2-(4-Methoxymethoxy-phenyl)-pyrido[3,2-d]pyrimidin-7-yl]-nicotinamide], for which the melting point worked out at 232 °C.
In the case of `Oc1ccc(-c2cnc3cnc(-c4ccccc4O)nc3c2)cc1` [Compound 31, 2-(2-Hydroxyphenyl)-7-(4-hydroxyphenyl)-pyrido[3,2-d]pyrimidine], the melting point is more than 268 °C.
Next, `COc1ccc(-c2cnc3c(-c4ccccc4)nc(-c4cccc(OC)c4)nc3c2)cc1` [Compound 8, 2-(3-Methoxyphenyl)-7-(4-methoxyphenyl)-4-phenyl-pyrido[3,2-d]-pyrimidine]: 147 to 148 °C.
Turning to `O=Cc1cccc(-c2cnc3cnc(-c4ccc(O)cc4)nc3c2)c1` [Compound 44, 2-(4-Hydroxyphenyl)-7-(3-formylphenyl)-pyrido[3,2-d]pyrimidine], the melting point came out at 266 °C.
In the case of `COc1cccc(-c2nc(-c3ccccc3)c3ncc(-c4cccnc4)cc3n2)c1` [Compound 13, 2-(3-Methoxyphenyl)-4-phenyl-7-(3-pyridyl)-pyrido[3,2-d]pyrimidine] it was 134 to 135 °C; in that of `Oc1ccccc1-c1ncc2ncc(Cl)cc2n1` [Compound 19, 7-Chloro-2-(2-hydroxyphenyl)-pyrido[3,2-d]pyrimidine], 211 to 212 °C.
For `O=C1CNCCN1c1cnc2cnc(-c3ccc(O)cc3)nc2c1` [Compound 70, 1-[2-(4-Hydroxy-phenyl)-pyrido[3,2-d]pyrimidin-7-yl]-piperazin-2-one], the melting point was more than 268 °C.
Take `COc1cccc(-c2nc(-c3ccccc3)c3ncc(-c4ccco4)cc3n2)c1` [Compound 12, 7-(2-Furyl)-2-(3-methoxyphenyl)-4-phenyl-pyrido[3,2-d]pyrimidine]: the melting point lay in the range of 131 to 132 °C.
Turning to `COCOc1ccc(-c2ncc3ccc(-c4csc(CN5CCN(C)CC5)c4)nc3n2)cc1` [Compound 77, 2-(4-Methoxymethoxy-phenyl)-7-[5-(4-methyl-piperazin-1-ylmethyl)-thiophen-3-yl]-pyrido[2,3-d]pyrimidine], the melting point was more than 268 °C.
On to `OCCNc1nc(NCc2ccccc2)c2ncc(Cl)cc2n1` [Compound 82, 4-Benzylamino-7-chloro-2-(2-hydroxyethylamino)-pyrido[3,2-d]pyrimidine], for which the melting point fell in the range of 106 to 107 °C.
Next, `COc1cccc(-c2nc(-c3ccccc3)c3ncc(-c4csc5ccccc45)cc3n2)c1` [Compound 14, 7-(3-Benzothienyl)-2-(3-methoxyphenyl)-4-phenyl-pyrido[3,2-d]pyrimidine]: 112 to 113 °C; `O=C1CCCN1c1cnc2cnc(-c3ccc(O)cc3)nc2c1` [Compound 72, 1-[2-(4-Hydroxy-phenyl)-pyrido[3,2-d]pyrimidin-7-yl]-pyrrolidin-2-one]: more than 268 °C; `Clc1cnc2c(-c3ccccc3)nc(-c3ccccc3)nc2c1` [Compound 4, 7-Chloro-2,4-diphenyl-pyrido[3,2-d]pyrimidine]: 120 to 121 °C.
In the case of `COc1cccc(-c2nc(-c3ccccc3)c3ncc(Cl)cc3n2)c1` [Compound 6, 7-Chloro-2-(3-methoxyphenyl)-4-phenyl-pyrido[3,2-d]pyrimidine] it was 112 to 113 °C; in that of `COc1ccccc1-c1nc(-c2ccccc2)c2ncc(Cl)cc2n1` [Compound 7, 7-Chloro-2-(2-methoxyphenyl)-4-phenyl-pyrido[3,2-d]pyrimidine], 116 to 117 °C.
Next, `Oc1cccc(-c2ncc3ncc(Cl)cc3n2)c1` [Compound 18, 7-Chloro-2-(3-hydroxyphenyl)-pyrido[3,2-d]pyrimidine]: 252 to 253 °C; `COc1ccc(-c2nc(-c3ccccc3)c3ncc(Cl)cc3n2)cc1` [Compound 5, 7-Chloro-2-(4-methoxyphenyl)-4-phenyl-pyrido[3,2-d]pyrimidine]: 193 to 194 °C.
`O=C(Nc1cnc2cnc(-c3ccc(O)cc3)nc2c1)c1cccnc1` [Compound 68, N-[2-(4-Hydroxy-phenyl)-pyrido[3,2-d]pyrimidin-7-yl]nicotinamide] yielded a melting point of 226 to 228 °C.
As to `OCc1cccc(-c2cnc3cnc(-c4ccc(O)cc4)nc3c2)c1` [Compound 45, 2-(4-Hydroxyphenyl)-7-(3-hydroxymethylphenyl)-pyrido[3,2-d]pyrimidine], the melting point came to 232 °C.
In the case of `N#Cc1ccc(-c2cnc3cnc(-c4ccc(O)cc4)nc3c2)cc1` [Compound 28, 2-(4-Hydroxyphenyl)-7-(4-cyanophenyl)-pyrido[3,2-d]pyrimidine] it was 313 to 314 °C.
Next, `Oc1ccc(-c2ncc3ncc(-c4ccc(S)cc4)cc3n2)cc1` [Compound 27, 2-(4-Hydroxyphenyl)-7-(4-mercaptophenyl)-pyrido[3,2-d]pyrimidine]: 222 to 223 °C.
In the case of `Oc1ccc(-c2cnc3cnc(-c4cccc(O)c4)nc3c2)cc1` [Compound 30, 2-(3-Hydroxyphenyl)-7-(4-hydroxyphenyl)-pyrido[3,2-d]pyrimidine] it was more than 268 °C.
As for `Oc1ccc(-c2ncc3ncc(Nc4ccccn4)cc3n2)cc1` [Compound 57, 2-(4-Hydroxyphenyl)-7-(2-pyridinylamino)-pyrido[3,2-d]pyrimidine], the melting point was more than 268 °C.
In the case of `COCOc1ccc(-c2ncc3ncc(N4CCCCC4=O)cc3n2)cc1` [Compound 66, 1-[2-(4-Methoxymethoxy-phenyl)-pyrido[3,2-d]pyrimidin-7-yl]-piperidin-2-one] it was 202 to 204 °C.
Next, `Oc1ccc(-c2ncc3ncc(Nc4ccncc4)cc3n2)cc1` [Compound 55, 2-(4-Hydroxyphenyl)-7-(4-pyridinylamino)-pyrido[3,2-d]pyrimidine]: more than 268 °C; `COCOc1ccc(-c2ncc3ncc(Cl)cc3n2)cc1` [Compound 64, 7-Chloro-2-(4-methoxymethoxy-phenyl)-pyrido[3,2-d]pyrimidine]: more than 268 °C.
In the case of `Oc1ccc(-c2ncc3ccc(-c4csc(CN5CCCCC5)c4)nc3n2)cc1` [Compound 78, 4-[7-(5-Piperidin-1-ylmethyl-thiophen-3-yl)-pyrido[2,3-d]pyrimidin-2-yl]-phenol] it was more than 268 °C.
`O=C(Nc1cnc2cnc(-c3ccc(O)cc3)nc2c1)c1ccncc1` [Compound 71, N-[2-(4-Hydroxy-phenyl)-pyrido[3,2-d]pyrimidin-7-yl]isonicotinamide] gave a melting point of 230 to 232 °C.
In the case of `COc1cc(O)ccc1-c1cnc2cnc(-c3ccc(O)cc3)nc2c1` [Compound 43, 2-(4-hydroxyphenyl)-7-(2-methoxy-4-hydroxyphenyl)-pyrido[3,2-d]pyrimidine] it was 207 to 208 °C.

These data come from patent US20130109693A1, “DERIVATIVES OF PYRIDO [3,2-D] PYRIMIDINE, METHODS FOR PREPARATION THEREOF AND THERAPEUTIC USES THEREOF” (UNIVERSITE D'ORLEANS, priority 2010, published 2013).
